For orientation: MIC means the lowest concentration found to suppress growth.

Holding throughout (assay type): functional
Assay [1] relates to Mycobacterium tuberculosis. The assay can be described thus: Antimycobacterial activity against Mycobacterium tuberculosis with cofactor F420 mutant.
The subject of assay [2] is Mycobacterium tuberculosis. Put plainly: Antimycobacterial activity against Mycobacterium tuberculosis with deazaflavin-dependent nitroreductase mutant under anaerobic condition.
Assay [3] deals with Mycobacterium tuberculosis. The assay can be described thus: Antimycobacterial activity against Mycobacterium tuberculosis with deazaflavin-dependent nitroreductase mutant.

A value given as a limit tells only on which side of the number the result lay.

With `CO[C@@H]1COc2nc([N+](=O)[O-])cn2C1`, the MIC in assay [1] and in assay [3] was more than 100 µM in each case. In assay [2], the MAC stood at 250 µM.
`COc1ncc([N+](=O)[O-])n1CCO`: the minimal inhibitory concentration (MIC) in assay [1] and in assay [3] was more than 100 µM in each case. The same molecule yielded an MAC in assay [2] of more than 500 µM.
Turning to `O=[N+]([O-])c1cnc2n1C[C@H](OCc1ccc(OC(F)(F)F)cc1)CO2`, the MIC in assay [1] and in assay [3] was more than 100 µM each time. Further, in assay [2], the MAC worked out at 62.5 µM.
In the case of `O=[N+]([O-])c1cnc2n1C[C@@H](O)CC2`, the MIC in assay [1] and in assay [3] was more than 100 µM throughout. The MAC in assay [2] was more than 100 µM.
Turning to `O=[N+]([O-])c1cn2c(n1)OC[C@@H](O)C2`, the MIC in assay [1] and in assay [3] was more than 100 µM throughout. The molecule further had an MAC in assay [2] of 500 µM.
Regarding `COc1nc([N+](=O)[O-])cn1CCOCc1ccc(OC(F)(F)F)cc1`, the MIC in assay [1] and in assay [3] was more than 100 µM each time. This molecule had an MAC in assay [2] of 250 µM.
Regarding `O=[N+]([O-])c1cnc2n1C[C@H](O)CO2`, the MIC in assay [1] and in assay [3] was more than 100 µM each time. In assay [2], this molecule came in with an MAC of 125 µM.
In the case of `Cc1ncc([N+](=O)[O-])n1CCOCc1ccc(OC(F)(F)F)cc1`, the MIC in assay [1] and in assay [3] was more than 100 µM in each case. In addition, in assay [2], the MAC worked out at 125 µM.
`O=[N+]([O-])c1cn2c(n1)C=C[C@@H](OCc1ccc(OC(F)(F)F)cc1)C2`: the MIC in assay [1] and in assay [3] was more than 100 µM in each case. This molecule also came in with an MAC in assay [2] of 62.5 µM.
Consider `Cc1nc([N+](=O)[O-])cn1CCOCc1ccc(OC(F)(F)F)cc1`, for which the MIC in assay [1] and in assay [3] was more than 100 µM throughout. In assay [2], this molecule returned an MAC of more than 500 µM.
Take `O=[N+]([O-])c1cn2c(n1)CC[C@@H](OCc1ccc(OC(F)(F)F)cc1)C2`: the MIC in assay [1] and in assay [3] was more than 100 µM throughout. Further, in assay [2], the MAC was determined as 250 µM.
For `Cc1nc([N+](=O)[O-])cn1CCO`, the MIC in assay [1] and in assay [3] was more than 100 µM each time. This molecule also had an MAC in assay [2] of more than 500 µM.
In the case of `O=[N+]([O-])c1cnc2n1C[C@H](O)CC2`, the MIC in assay [1] and in assay [3] was more than 100 µM each time. The same molecule had an MAC in assay [2] of more than 500 µM.
Consider `FC(F)(F)Oc1ccc(CO[C@@H]2COc3nccn3C2)cc1`, for which the MIC in assay [1] and in assay [3] was more than 100 µM each time. The MAC in assay [2] is more than 500 µM.
Consider `Cc1ncc([N+](=O)[O-])n1CCO` [METRONIDAZOLE], for which the MIC in assay [1] and in assay [3] was more than 100 µM in each case.
In the case of `O=[N+]([O-])c1cn2c(n1)OC[C@@H](OCc1ccc(OC(F)(F)F)cc1)C2` [PRETOMANID], the MIC in assay [1] and in assay [3] was more than 100 µM each time. In addition, in assay [2], the MAC is more than 500 µM.
